pIC50: −log10 of the molar value.
Legend:
[1] = Tissue analysis for defluorination in rat footpads; assay type: in vivo, Sprague-Dawley rats; conditions: compound 7 1 mg/kg i.p., 2 hours post dosing
mCOX-2 = biological target: T1, mCOX-2 (Mus musculus, UniProt Q05769); test: Enzyme-inhibitor binding kinetics, time-dependent inhibition of purified mCOX-2; assay type: biochemical; conditions: mCOX-2, time-dependent inhibition
T1 sequence (Q05769 18-604): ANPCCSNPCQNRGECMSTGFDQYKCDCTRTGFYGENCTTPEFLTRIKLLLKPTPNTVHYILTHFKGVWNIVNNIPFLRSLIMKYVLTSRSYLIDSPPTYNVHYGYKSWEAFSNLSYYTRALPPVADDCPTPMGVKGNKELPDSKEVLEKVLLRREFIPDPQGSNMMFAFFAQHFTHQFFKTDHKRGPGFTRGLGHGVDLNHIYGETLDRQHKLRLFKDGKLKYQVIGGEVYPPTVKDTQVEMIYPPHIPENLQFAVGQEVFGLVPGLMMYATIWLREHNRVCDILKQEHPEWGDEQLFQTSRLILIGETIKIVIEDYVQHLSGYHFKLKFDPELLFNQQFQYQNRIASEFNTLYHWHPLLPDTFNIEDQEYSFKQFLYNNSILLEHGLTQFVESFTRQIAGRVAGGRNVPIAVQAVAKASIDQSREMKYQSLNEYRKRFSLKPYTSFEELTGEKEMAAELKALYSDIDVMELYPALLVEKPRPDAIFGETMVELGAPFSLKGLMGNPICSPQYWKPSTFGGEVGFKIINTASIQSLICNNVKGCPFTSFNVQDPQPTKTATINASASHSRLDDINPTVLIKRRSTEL

COX-2 in RAW264.7 cells = assay type: cell-based, murine

calculated extent of defluorination ([1]; rat footpad, n = 3) [%] | amount in inflamed footpad ([1]; rat, LC-MS) [pmol/g tissue] | dissociation rate k−2 (mCOX-2) [s⁻¹] | inactivation rate k2 (mCOX-2) [s⁻¹] | KI, equilibrium constant for initial association (k−1/k1) (mCOX-2; 37 °C) [nM] | pIC50 (COX-2 in RAW264.7 cells; Mus musculus, RAW264.7, 0.5 h, read-out: RAW246.7 Cells IC50 COX-2) | SMILES | Inhibition of COX-2 in intact RAW264.7 cells, in words (COX-2 in RAW264.7 cells; activated RAW264.7 cells, prostaglandin production)
8.8 ± 5.0 | 486.3 | 0.0003 | 0.035 | 7300 ± 1600 | – | Cc1ccc(-c2cc(CF)nn2-c2ccc(S(N)(=O)=O)cc2)cc1 [Compound 7] | low nanomolar range
– | – | – | – | – | 8.00 | COc1ccc2c(c1)c(CC(=O)O)c(C)n2C(=O)c1ccc(Cl)cc1 [Indomethacin, reference compound] | –

From article PMC3214660 (Cancer prevention research (Philadelphia, Pa.), 2011)
